This is an account of results in publication PMC9130746, “In Vitro Activity of Peptide Antibiotics in Combination With Other Antimicrobials on Extensively Drug-Resistant Acinetobacter baumannii in the Planktonic and Biofilm Cell” (Frontiers in Pharmacology, 2022).

≈ marks a conversion by molar mass, not a printed value. Read-outs that look alike come from different tables or passages of the source. Where only a bound is given, the exact number is not on record here.

Test [1] relates to extensively drug-resistant A. baumannii clinical isolates (planktonic cell). The test can be described thus: microbe, parasite or virus in culture. In kind it is cell-based, Acinetobacter baumannii. The source says:
(§1) Nine XDRAB strains were isolated from clinical specimens such as the septum, urine, or respiratory lavage fluid of patients from the respiratory intensive care unit, intensive care unit, the cardiothoracic surgery department, and the neurology department at the First Affiliated Hospital of Chengdu Medical College during the period from 2018 to 2020 (Chengdu, Sichuan, China). In addition, A. baumannii ATCC 19606, Staphylococcus aureus ATCC 29213, and Escherichia coli ATCC 25922 were used as quality control strains in antimicrobial susceptibility testing (AST) and obtained from the American Type Culture Collection (ATCC, Manassas, VA, United States).
The minimum inhibitory concentrations (MICs) were determined by the broth microdilution method for the antibacterial agents and peptide antibiotics for A. baumannii based on the guidelines provided by the Clinical and Laboratory Standards Institute (CLSI) ([Humphries et al., 2021]). Briefly, bacterial cells were inoculated in Luria–Bertani agar medium at 37°C for 16–20 h, and then resuspended in saline (0.9% sodium chloride) to adjust the bacterial content to reach the 0.5 McFarland turbidity standard, followed by a 20-fold dilution. Antimicrobial solutions were prepared according to the CLSI ([Humphries et al., 2021]). Finally, 180 μl CAMHB, 10 µl corresponding antimicrobials, and 10 µl bacterial resuspension were added into 96-well plate (NEST TC, 701001, www.cell-nest.com). The value of OD600 was measured after incubating at 37°C for 16–20 h.

In test [2] the test system is extensively drug-resistant A. baumannii clinical isolates (biofilm cell). In kind it is cell-based, Acinetobacter baumannii. As to conditions: after XDRAB biofilm formation, nine isolates.
From the text: as §1
The minimum biofilm inhibitory concentrations (MBICs) were detected using a previous study protocol ([Kart et al., 2021]) for the antibacterial agents and peptide antibiotics for A. baumannii in the biofilm cell. First, bacterial cells were inoculated in Luria–Bertani agar medium at 37°C for 16–20 h. Next, the bacterial monoclones were resuspended in saline (0.9% sodium chloride) to adjust the bacterial content to reach the 0.5 McFarland turbidity standard. Then, 190 µl TSB and 10 µl bacterial resuspension were mixed in a 96-well plate. After incubating at 37°C for 24 h, the medium was aspirated, and 200 µl PBS was added to wash three times. Finally, 190 μl MH broth medium and 10 µl corresponding antibiotics were added into 96-well plate (NEST TC, 701001, www.cell-nest.com). The optical density was measured at OD600 after incubating for 16–20 h at 37°C.

[3] abbreviates: Acinetobacter baumannii, isolate AB1, planktonic, broth microdilution, CAMHB, 37°C 16–20 h, OD600, read-out: MIC.
[4] abbreviates: Acinetobacter baumannii, isolate AB2, planktonic, broth microdilution, CAMHB, 37°C 16–20 h, OD600, read-out: MIC.
Where [5] appears, read: Acinetobacter baumannii, isolate AB3, planktonic, broth microdilution, CAMHB, 37°C 16–20 h, OD600, read-out: MIC.
Where [6] appears, read: Acinetobacter baumannii, isolate AB4, planktonic, broth microdilution, CAMHB, 37°C 16–20 h, OD600, read-out: MIC.
The mark [7] stands for this setting: Acinetobacter baumannii, isolate AB5, planktonic, broth microdilution, CAMHB, 37°C 16–20 h, OD600, read-out: MIC.
The mark [8] stands for this setting: Acinetobacter baumannii, isolate AB6, planktonic, broth microdilution, CAMHB, 37°C 16–20 h, OD600, read-out: MIC.
Setting [9] is: Acinetobacter baumannii, isolate AB7, planktonic, broth microdilution, CAMHB, 37°C 16–20 h, OD600, read-out: MIC.
Setting [10] is: Acinetobacter baumannii, isolate AB8, planktonic, broth microdilution, CAMHB, 37°C 16–20 h, OD600, read-out: MIC.
The mark [11] stands for this setting: Acinetobacter baumannii, isolate AB9, planktonic, broth microdilution, CAMHB, 37°C 16–20 h, OD600, read-out: MIC.
[12] abbreviates: isolate AB1, planktonic, broth microdilution, CAMHB, 37°C 16–20 h, OD600.
The mark [13] stands for this setting: isolate AB2, planktonic, broth microdilution, CAMHB, 37°C 16–20 h, OD600.
[14] abbreviates: isolate AB3, planktonic, broth microdilution, CAMHB, 37°C 16–20 h, OD600.
The mark [15] stands for this setting: isolate AB4, planktonic, broth microdilution, CAMHB, 37°C 16–20 h, OD600.
Setting [16] is: isolate AB5, planktonic, broth microdilution, CAMHB, 37°C 16–20 h, OD600.
Setting [17] is: isolate AB6, planktonic, broth microdilution, CAMHB, 37°C 16–20 h, OD600.
Where [18] appears, read: isolate AB7, planktonic, broth microdilution, CAMHB, 37°C 16–20 h, OD600.
[19] abbreviates: isolate AB8, planktonic, broth microdilution, CAMHB, 37°C 16–20 h, OD600.

For the molecule `CCN1CCN(C(=O)N[C@@H](C(=O)N[C@@H]2C(=O)N3[C@@H]2SC(C)(C)[C@@H]3C(=O)O)c2ccccc2)C(=O)C1=O` [Piperacillin, piperacillin], the MIC in test [1] (setting [3]), in test [1] (setting [4]), in test [1] (setting [5]), in test [1] (setting [6]), in test [1] (setting [7]) and in test [1] (setting [8]) was more than 1020 µg/mL in each case. The MIC in test [1] (setting [9]), in test [1] (setting [10]) and in test [1] (setting [11]) was more than 1020 µg/mL in each case.
Turning to `C[C@H]1COc2c(N3CCN(C)CC3)c(F)cc3c(=O)c(C(=O)O)cn1c23` [Levofloxacin, levofloxacin], the MIC in test [1] (setting [3]) amounted to 16 µg/mL (≈ 44.3 µM); in test [1] (setting [4]), 16 µg/mL (≈ 44.3 µM); in test [1] (setting [5]), 16 µg/mL (≈ 44.3 µM); in test [1] (setting [6]), 8 µg/mL (≈ 22.1 µM); in test [1] (setting [7]) it was 8 µg/mL (≈ 22.1 µM); in test [1] (setting [8]) it was 16 µg/mL (≈ 44.3 µM). Further, the MIC in test [1] (setting [9]) stood at 8 µg/mL (≈ 22.1 µM); in test [1] (setting [10]), 16 µg/mL (≈ 44.3 µM); in test [1] (setting [11]), 16 µg/mL (≈ 44.3 µM).
As to `CN(C)c1cc(NC(=O)CNC(C)(C)C)c(O)c2c1C[C@H]1C[C@H]3[C@H](N(C)C)C(O)=C(C(N)=O)C(=O)[C@@]3(O)C(O)=C1C2=O` [Tigecycline, tigecycline], the MIC in test [1] (setting [3]), in test [1] (setting [4]), in test [1] (setting [5]), in test [1] (setting [6]), in test [1] (setting [7]) and in test [1] (setting [8]) was 1 µg/mL (≈ 1.71 µM) each time. In addition, the MIC was determined as 1 µg/mL (≈ 1.71 µM) in test [1] (setting [9]), 1 µg/mL (≈ 1.71 µM) in test [1] (setting [10]) and 0.5 µg/mL (≈ 0.854 µM) in test [1] (setting [11]). Besides, the sensitivity rate came out at 100% in test [1] (planktonic cell, nine isolates) and 11% in test [2]. This molecule also yielded an intermediate rate in test [2] of 67%. In test [2], this molecule showed a resistance rate of 22%.
In the case of `NCC[C@H](O)C(=O)N[C@@H]1C[C@H](N)[C@@H](O[C@H]2O[C@H](CN)[C@@H](O)[C@H](O)[C@H]2O)[C@H](O)[C@H]1O[C@H]1O[C@H](CO)[C@@H](O)[C@H](N)[C@H]1O` [Amikacin, amikacin], the MIC in test [1] (setting [3]), in test [1] (setting [4]), in test [1] (setting [5]), in test [1] (setting [6]), in test [1] (setting [7]) and in test [1] (setting [8]) was more than 1020 µg/mL each time. For the same molecule, the MIC in test [1] (setting [9]), in test [1] (setting [10]) and in test [1] (setting [11]) was more than 1020 µg/mL throughout.
As to `C[C@@H](O)[C@H]1C(=O)N2C(C(=O)O)=C(SCCN=CN)C[C@H]12` [Imipenem, imipenem], the MIC in test [1] (setting [3]), in test [1] (setting [4]), in test [1] (setting [5]), in test [1] (setting [6]), in test [1] (setting [7]) and in test [1] (setting [8]) was 64 µg/mL (≈ 214 µM) each time. In addition, the MIC in test [1] (setting [9]), in test [1] (setting [10]) and in test [1] (setting [11]) was 64 µg/mL (≈ 214 µM) each time.
As to `CNC(C)C1CCC(N)C(OC2C(N)CC(N)C(OC3OCC(C)(O)C(NC)C3O)C2O)O1` (stereo not shown) [Gentamicin, gentamicin], the MIC in test [1] (Acinetobacter baumannii) is more than 1020 µg/mL; in test [1] (setting [12]) it was more than 1024 µg/mL; in test [1] (setting [13]), more than 1024 µg/mL; in test [1] (setting [14]), more than 1024 µg/mL; in test [1] (setting [15]), more than 1024 µg/mL; in test [1] (setting [16]), more than 1024 µg/mL. In addition, the MIC in test [1] (setting [17]), in test [1] (setting [18]) and in test [1] (setting [19]) was more than 1024 µg/mL each time.
With `O=C(N[C@H](CO)[C@H](O)c1ccc([N+](=O)[O-])cc1)C(Cl)Cl` [Chloramphenicol, chloramphenicol], the MIC in test [1] (setting [3]), in test [1] (setting [4]), in test [1] (setting [5]), in test [1] (setting [6]), in test [1] (setting [7]) and in test [1] (setting [8]) was 32 µg/mL (≈ 99 µM) throughout. Moreover, the MIC in test [1] (setting [9]), in test [1] (setting [10]) and in test [1] (setting [11]) was 32 µg/mL (≈ 99 µM) in each case.
Take `CO/N=C(\C(=O)N[C@@H]1C(=O)N2C(C(=O)O)=C(COC(C)=O)CS[C@H]12)c1csc(N)n1` [Cefotaxime, cefotaxime]: the MIC in test [1] (Acinetobacter baumannii), in test [1] (setting [12]), in test [1] (setting [13]), in test [1] (setting [14]), in test [1] (setting [15]) and in test [1] (setting [16]) was 256 µg/mL (≈ 562 µM) throughout. Besides, the MIC in test [1] (setting [17]), in test [1] (setting [18]) and in test [1] (setting [19]) was 256 µg/mL (≈ 562 µM) each time.
Regarding `CC(C)(O/N=C(\C(=O)N[C@@H]1C(=O)N2C(C(=O)[O-])=C(C[n+]3ccccc3)CS[C@H]12)c1csc(N)n1)C(=O)O` [Ceftazidime, ceftazidime], the MIC in test [1] (Acinetobacter baumannii), in test [1] (setting [12]), in test [1] (setting [13]), in test [1] (setting [14]), in test [1] (setting [15]) and in test [1] (setting [16]) was 256 µg/mL (≈ 468 µM) each time. The MIC in test [1] (setting [17]), in test [1] (setting [18]) and in test [1] (setting [19]) was 256 µg/mL (≈ 468 µM) throughout.
Turning to `CN(C)[C@@H]1C(O)=C(C(N)=O)C(=O)[C@@]2(O)C(O)=C3C(=O)c4c(O)cccc4[C@@](C)(O)[C@H]3C[C@@H]12` [Tetracycline, tetracycline], the MIC in test [1] (setting [3]), in test [1] (setting [4]), in test [1] (setting [5]), in test [1] (setting [6]), in test [1] (setting [7]) and in test [1] (setting [8]) was more than 1020 µg/mL each time. The MIC in test [1] (setting [9]), in test [1] (setting [10]) and in test [1] (setting [11]) was more than 1020 µg/mL throughout.
As for `CN(C)c1ccc(O)c2c1C[C@H]1C[C@H]3[C@H](N(C)C)C(O)=C(C(N)=O)C(=O)[C@@]3(O)C(O)=C1C2=O` [Minocycline, minocycline], the MIC in test [1] (setting [3]), in test [1] (setting [4]), in test [1] (setting [5]), in test [1] (setting [6]), in test [1] (setting [7]) and in test [1] (setting [8]) was 16 µg/mL (≈ 35 µM) throughout. Besides, the MIC in test [1] (setting [9]), in test [1] (setting [10]) and in test [1] (setting [11]) was 16 µg/mL (≈ 35 µM) each time.
As to `C[C@@H](O)[C@H]1C(=O)N2C(C(=O)O)=C(S[C@@H]3CN[C@H](C(=O)N(C)C)C3)[C@H](C)[C@H]12` [Meropenem, meropenem], the MIC in test [1] (setting [3]), in test [1] (setting [4]), in test [1] (setting [5]), in test [1] (setting [6]), in test [1] (setting [7]) and in test [1] (setting [8]) was 32 µg/mL (≈ 83.4 µM) each time. Further, the MIC in test [1] (setting [9]), in test [1] (setting [10]) and in test [1] (setting [11]) was 32 µg/mL (≈ 83.4 µM) each time.
